According to US10865196B2, “Compounds for treatment of cancer” (University of Tennessee Research Foundation, priority 2008, dated 2020):
Read-outs that look alike come from different tables or passages of the source.

Columns and labels:
[1] = tested on: melanoma (A375, B16-F1) and prostate cancer cells (DU145, PC-3, LNCaP, PPC-1); assay: SRB assay, range over melanoma and prostate cancer cell lines; format: cell-based; settings: for antiproliferative activity against melanoma and prostate cancer cell lines, in words: compared with 8f or parent compounds; for IC50: range over the examined cell lines, read-out: IC50 over melanoma and prostate cancer cell lines
Experimental: For melanoma assays, one human melanoma cell line (A375) and one mouse melanoma cell line (B16-F1) were used. […] Fibroblast cells were used as a control to determine the selectivity of these compounds against melanoma. Human dermal fibroblast cells were purchased from Cascade Biologics, Inc., Portland, Oreg., USA. […] Cells were exposed to a wide range of concentrations for 48 h in round-bottomed 96-well plates. […] After cells were air-dried overnight and stained with SRB solution, total proteins were measured at 560 nm with a plate reader.

DU 145 = assay: SRB antiproliferation assay, DU 145 prostate cancer; settings: read-out: IC50 DU 145, SRB
A375 = assay: SRB antiproliferation assay, A375 melanoma; format: cell-based, human
Source text: (§1) For melanoma assays, one human melanoma cell line (A375) and one mouse melanoma cell line (B16-F1) were used. […] Fibroblast cells were used as a control to determine the selectivity of these compounds against melanoma. Human dermal fibroblast cells were purchased from Cascade Biologics, Inc., Portland, Oreg., USA.

LNCaP = assay: SRB antiproliferation assay, LNCaP prostate cancer; settings: read-out: IC50 LNCaP, SRB
B16-F1 = assay: SRB antiproliferation assay, B16-F1 melanoma; format: cell-based, mouse
Source text: as §1

PC-3 = assay: SRB antiproliferation assay, PC-3 prostate cancer; settings: read-out: IC50 PC-3; SRB
PPC-1 = assay: SRB antiproliferation assay, PPC-1 prostate cancer; settings: read-out: IC50 PPC-1, SRB
[2] = Homo sapiens, A-375, read-out: IC50 A375
[3] = Mus musculus, B16-F1, read-out: IC50 B16-F1
[4] = Homo sapiens, A-375, SRB, read-out: IC50 A375 (converted)
[5] = Mus musculus, B16-F1, SRB, read-out: IC50 B16-F1 (converted)

For COC(=O)c1ccc(-c2nc(C(=O)c3cc(OC)c(OC)c(OC)c3)cs2)cc1 [8s, Methyl-4-[4-(3,4,5-trimethoxybenzoyl)-thiazol-2-yl]-benzoate], the melting point was 172 to 174 °C and the “antiproliferative activity against melanoma and prostate cancer cell lines, in words” value (“antiproliferative activity” for short) [1] was “total loss of potency”.
For COc1cc(C(=O)c2csc(-c3ccc(N)cc3)n2)cc(OC)c1OC [8w, [2-(4-Amino-phenyl)-thiazol-4-yl]-(3,4,5-trimethoxy-phenyl)-methanone], the IC50 [1] was 11 to 29 nM.
Work on COc1cc(C(=O)c2csc(-c3cccs3)n2)cc(OC)c1OC [8z, [2-(Thiophen-2-yl)-thiazol-4-yl]-(3,4,5-trimethoxyphenyl)-methanone] yielded an IC50 (DU 145) of 22 ± 1 nM, an IC50 (A375; [2]) of 0.02 ± 0.007 µM and an IC50 (LNCaP) of 9 ± 1 nM. It also gave an IC50 (B16-F1; [3]) of 0.038 ± 0.015 µM and an IC50 [1] of 9 to 38 nM.
For O=C(c1cc(O)c(O)c(O)c1)c1csc(-c2ccccc2)n1 [11f, (2-Phenyl-thiazol-4-yl)-(3,4,5-trihydroxy-phenyl)-methanone], the “antiproliferative activity” value [1] was “complete loss of antiproliferative activity”.
O=C(c1ccc(F)cc1)c1csc(-c2ccccc2)n1 [12-12] gave an IC50 (A375; [4]) greater than 10 µM and an IC50 (B16-F1; [5]) greater than 10 µM.
With O=C(c1ccc(F)cc1)c1csc(-c2ccc(F)cc2)n1 [14-14] the IC50 (A375; [4]) was greater than 10 µM and the IC50 (B16-F1; [5]) was greater than 10 µM.
O=C(c1csc(-c2cc(F)c(F)c(F)c2)n1)c1c(F)c(F)c(F)c(F)c1F [16-16] gave an IC50 (A375; [4]) of 15.2 µM and an IC50 (B16-F1; [5]) of 6.9 µM.
Work on O=C(c1csc(-c2ccccc2)n1)c1c(F)c(F)c(F)c(F)c1F [17-17] yielded an IC50 (A375; [4]) of 4.3 µM and an IC50 (B16-F1; [5]) of 9.8 µM.
Compound CCc1cc(C(=O)c2csc(-c3ccccc3)n2)cc(OC(F)(F)F)c1OC(=O)CCl [18-18] has an IC50 (DU 145) of roughly 10000 nM, an IC50 (LNCaP) of roughly 10000 nM and an IC50 (PC-3) of roughly 10 µM. It also gave an IC50 (PPC-1) of roughly 10 µM.
O=C(c1ccc2c(c1)OCO2)N1CCC(c2ccccc2)CC1 [19-19] showed an IC50 (A375; [4]) greater than 20 µM and an IC50 (B16-F1; [5]) greater than 20 µM.
O=C(c1ccc(F)cc1)N1CCC(c2ccccc2)CC1 [22-22] showed an IC50 (A375; [4]) greater than 20 µM and an IC50 (B16-F1; [5]) greater than 20 µM.
COc1cc(C(=O)c2csc(-c3ccc(N)cc3)n2)cc(OC)c1OC [26-26] gave an IC50 (A375; [2]) of 0.011 µM and an IC50 (B16-F1; [3]) of 0.014 µM.
For Cc1ccc(-c2nc(C(=O)c3ccc(F)cc3)cn2C(=O)c2ccc(F)cc2)cc1 [29-29], the IC50 (A375; [4]) was greater than 10 µM and the IC50 (B16-F1; [5]) was greater than 10 µM.
Work on COc1cc(-c2nc(C(=O)c3ccc(F)cc3)cn2C(=O)c2ccc(F)cc2)cc(OC)c1OC [30-30] yielded an IC50 (A375; [4]) greater than 10 µM and an IC50 (B16-F1; [5]) greater than 10 µM.
With O=C(c1cc(O)c(O)c(O)c1)c1csc(-c2ccccc2)n1 [33-33] the IC50 (A375; [4]) was 9.8 µM and the IC50 (B16-F1; [5]) was greater than 20 µM.
For COc1cc(C(=O)c2csc(-c3ccccc3)n2)cc(OC)c1O [34-34], the IC50 (A375; [4]) was greater than 10 µM and the IC50 (B16-F1; [5]) was greater than 10 µM.
Work on CCCCCCCCCCCCCCCCNC(=O)[C@@H]1CSC(c2ccc(NC(C)=O)cc2)N1 (stereo partly drawn) [ATCAA-1, reference compound] yielded an IC50 (DU 145; 96 h) of 1700 ± 100 nM, an IC50 (A375; SRB, 48 h, read-out: IC50 A375 (converted)) of 2.1 ± 0.2 µM and an IC50 (LNCaP; 96 h) of 1000 ± 100 nM. It also gave an IC50 (PPC-1; 96 h) of 0.4 ± 0.1 µM, an IC50 (B16-F1; SRB, 48 h, read-out: IC50 B16-F1 (converted)) of 2.2 ± 0.3 µM and an IC50 [1] of 400 to 2200 nM.
With COc1cc(NC(=O)c2csc(-c3ccccc3)n2)cc(OC)c1OC [compound 5, 2-Phenyl-N-(3,4,5-trimethoxyphenyl)thiazole-4-carboxamide] the melting point was 157 to 158 °C, the IC50 (A375; Homo sapiens, A-375, 48 h, SRB, 48 h, read-out: IC50 A375 (converted)) was greater than 100 µM and the IC50 (B16-F1; Mus musculus, B16-F1, 48 h, SRB, 48 h, read-out: IC50 B16-F1 (converted)) was greater than 100 µM. The “antiproliferative activity” value [1] was “did not show any cytotoxicity”.
